Data on one molecule can be found in article PMC4706877, “Antibacterial and Cytotoxic Activity of Compounds Isolated from Flourensia oolepis” (Evidence-based Complementary and Alternative Medicine : eCAM, 2015).

The test system of the assay is CCRF-CEM acute lymphoblastic leukemia cells. Put plainly: MTT cell proliferation assay. In kind it is cell-based, human. The note with it: for IC50: CCRF-CEM, MTT, 72 h, read-out: IC50 values and 95% confidence limits (lower, upper). Here is the method: The HEK293T non-tumor derived cell line and human isolated mononuclear cells (PBMC) were also tested. […] Cells were cultured at 37°C in a 5% CO2 humidified environment.
To investigate the cytotoxic potential of the isolated compounds, the MTT colorimetric assay was performed. […] The compounds were evaluated at a final maximum concentration of 100 μM. After 72 hours, 20 μL of 5 mg/mL solution of MTT in sterile PBS was added to each well and further incubated for 4 h. Then, the supernatants were removed and replaced with 100 μL DMSO to solubilize the resulting purple formazan crystals produced from metabolically viable cells. Absorbance was measured with an iMark micro-plate reader (Bio-Rad, USA) at 595 nm. Two wells were used for each concentration of the products assayed and three independent experiments were performed. […] The percentage of cytotoxic activity of the assayed compounds was determined by the following formula: cytotoxicity (%) = [1 − (optical density of treated cells − optical density DMSO)/(optical density of ethanol control cells − optical density DMSO)] × 100.
Data were analyzed by one-way analysis of variance (ANOVA) and means were compared using Bonferroni's comparison test, with p ≤ 0.05 considered as statistically significant.
In general terms: Tetrazolium assays rely on reduction of a dye to a coloured formazan, in cell work by metabolically active cells.

Where two headings read alike, the source gives them in different places.

Regarding `O=C(/C=C/c1ccccc1)c1ccc(O)cc1O` [Compound 1, 2′,4′-dihydroxychalcone], the IC50 came to 6.6 µM. Besides, under “Homo sapiens”, the IC50 was below 10 µM. The “selectivity index (SI)” value (IC50 HEK293T / IC50 CCRF-CEM) is given as 10.1. Moreover, the “selectivity index (SI)” value (IC50 PBMC / IC50 CCRF-CEM) was determined as 12.5.

In general, IC50 refers to the point on the concentration scale where inhibition reaches its midpoint.
